The record followed here is US6734193B1, “(1,2,3,4-tetrahydroquinolin-8-yl)-heptatrienoic acid derivatives having serum glucose reducing activity” (Allergan, Inc., priority 2003, dated 2004).

SMILES strings stand for the structures.

The target in data set [1] is T1, RXRβ (Homo sapiens, UniProt P28702).
T1 construct: expressed in transfected cells
T1 sequence (P28702 1-533): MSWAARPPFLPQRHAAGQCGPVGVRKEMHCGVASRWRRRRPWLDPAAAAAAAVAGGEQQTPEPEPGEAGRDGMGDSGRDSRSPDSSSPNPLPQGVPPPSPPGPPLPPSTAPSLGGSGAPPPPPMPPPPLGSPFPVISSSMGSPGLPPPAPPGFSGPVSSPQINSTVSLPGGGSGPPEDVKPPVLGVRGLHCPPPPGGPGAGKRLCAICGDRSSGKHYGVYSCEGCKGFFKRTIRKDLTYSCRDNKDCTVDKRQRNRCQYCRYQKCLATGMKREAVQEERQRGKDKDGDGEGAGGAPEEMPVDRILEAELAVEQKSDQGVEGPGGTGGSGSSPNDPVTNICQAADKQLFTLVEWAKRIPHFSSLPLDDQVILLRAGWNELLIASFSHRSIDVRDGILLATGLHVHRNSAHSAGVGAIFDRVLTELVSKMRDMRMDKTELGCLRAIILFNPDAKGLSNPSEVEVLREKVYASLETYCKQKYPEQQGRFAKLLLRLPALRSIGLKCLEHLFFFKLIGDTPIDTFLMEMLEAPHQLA
Nature of the data set: holoreceptor transactivation assay, RXRβ. Type of data set: cell-based. The conditions noted are these: for EC50: holoreceptor assay, read-out: RXR Trans. EC50 β; for RXR Trans. efficacy β (in parentheses): percentage compared to the standard compound. From the text:
(§1) A holoreceptor transactivation assay and a ligand binding assay which measure the antagonist/agonist like activity of the compounds of the invention, or their ability to bind to the several retinoid receptor subtypes, respectively, are described in published PCT Application No. WO WO093/11755 (particularly on pages 30-33 and 37-41) published on Jun. 24, 1993, the specification of which is also incorporated herein by reference. A detailed experimental procedure for holoreceptor transactivations has been described by Heyman et al. Cell 68, 397-406, (1992); Allegretto et al. J. Biol. Chem. 268, 26625-26633, and Mangelsdorf et al. The Retinoids: Biology, Chemistry and Medicine, pp 319-349, Raven Press Ltd., New York, which are expressly incorporated herein by reference. The results obtained in this assay are expressed in EC50 numbers, as they are also in the chimeric receptor transactivation assay. The results of the ligand binding assay are expressed in Ki numbers. (See Cheng et al Biochemical Pharmacology Vol. 22 pp 3099-3108, expressly incorporated herein by reference.)
(§2) This standard compound is described in U.S. Pat. No. 6,114,533.
(§3) Table 1 discloses the activity of certain exemplary compounds of the invention in the above-described receptor transactivation and binding assays. Particularly, the transactivation data pertaining to activation of the RAR receptors were obtained in the chimeric assay, and the transactivation data pertaining to the activation of RXR receptors were obtained in the holoreceptor assay.

Data set [2] addresses T2, RXRα (Homo sapiens, UniProt P19793).
T2 construct: expressed in transfected cells
T2 sequence (P19793 1-462): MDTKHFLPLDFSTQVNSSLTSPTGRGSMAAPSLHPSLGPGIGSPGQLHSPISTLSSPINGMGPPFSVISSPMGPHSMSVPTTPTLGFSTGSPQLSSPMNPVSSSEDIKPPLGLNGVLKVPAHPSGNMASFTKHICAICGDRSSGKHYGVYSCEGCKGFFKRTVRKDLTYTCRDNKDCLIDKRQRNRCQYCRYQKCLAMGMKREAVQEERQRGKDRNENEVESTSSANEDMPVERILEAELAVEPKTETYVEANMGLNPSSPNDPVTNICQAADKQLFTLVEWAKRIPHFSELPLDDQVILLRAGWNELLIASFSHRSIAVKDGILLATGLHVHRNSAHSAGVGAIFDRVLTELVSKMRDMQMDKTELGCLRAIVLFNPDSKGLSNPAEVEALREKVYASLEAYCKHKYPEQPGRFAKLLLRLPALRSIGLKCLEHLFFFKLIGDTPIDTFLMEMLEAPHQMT
Nature of the data set: holoreceptor transactivation assay, RXRα. The format is cell-based. The following applies: for EC50: holoreceptor assay, read-out: RXR Trans. EC50 α; for RXR Trans. efficacy α (in parentheses): percentage compared to the standard compound.
Description: as §1, §2, §3

A further data set concerns the target T3, RARγ (Homo sapiens, UniProt P13631).
T3 sequence (P13631 1-454): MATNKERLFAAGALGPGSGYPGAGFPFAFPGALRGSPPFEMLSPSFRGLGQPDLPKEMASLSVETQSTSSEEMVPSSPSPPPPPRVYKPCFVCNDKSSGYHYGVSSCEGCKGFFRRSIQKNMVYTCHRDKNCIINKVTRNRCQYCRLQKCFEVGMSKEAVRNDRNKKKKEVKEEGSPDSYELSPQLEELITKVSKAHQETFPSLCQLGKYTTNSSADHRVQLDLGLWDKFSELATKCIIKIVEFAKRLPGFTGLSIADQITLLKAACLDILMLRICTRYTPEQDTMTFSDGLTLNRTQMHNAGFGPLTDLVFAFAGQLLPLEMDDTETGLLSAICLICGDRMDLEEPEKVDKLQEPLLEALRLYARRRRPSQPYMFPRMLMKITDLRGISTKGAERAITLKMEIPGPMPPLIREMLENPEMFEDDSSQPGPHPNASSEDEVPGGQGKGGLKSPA
Nature of the data set: ligand binding assay, RARγ. The following applies: read-out: RAR Bind. Ki γ.
Description: as §1

Data set [3] deals with T2, RXRα. Nature of the data set: ligand binding assay, RXRα. The following applies: read-out: RXR Bind Ki α.
Description: as §1

Data set [4] deals with T1, RXRβ. Nature of the data set: ligand binding assay, RXRβ. The following applies: read-out: RXR Bind Ki β.
Description: as §1

Data set [5] deals with T4, RXRγ (Homo sapiens, UniProt P48443).
T4 construct: expressed in transfected cells
T4 sequence (P48443 1-463): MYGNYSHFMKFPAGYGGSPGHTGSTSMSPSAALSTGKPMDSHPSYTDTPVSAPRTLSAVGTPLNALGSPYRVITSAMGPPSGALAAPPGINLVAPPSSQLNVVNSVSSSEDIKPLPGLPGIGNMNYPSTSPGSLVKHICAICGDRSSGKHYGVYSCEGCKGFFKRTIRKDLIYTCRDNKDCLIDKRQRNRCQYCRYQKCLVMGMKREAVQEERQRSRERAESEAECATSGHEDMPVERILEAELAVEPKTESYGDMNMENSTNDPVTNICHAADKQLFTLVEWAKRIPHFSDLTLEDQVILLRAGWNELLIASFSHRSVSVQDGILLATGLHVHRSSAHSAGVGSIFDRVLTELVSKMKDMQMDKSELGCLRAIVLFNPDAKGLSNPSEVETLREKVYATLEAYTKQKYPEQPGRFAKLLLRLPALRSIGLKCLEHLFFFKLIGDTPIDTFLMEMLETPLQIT
The data set can be described thus: holoreceptor transactivation assay, RXRγ. Type of data set: cell-based. The conditions noted are these: for EC50: holoreceptor assay, read-out: RXR Trans. EC50 γ; for RXR Trans. efficacy γ (in parentheses): percentage compared to the standard compound.
Description: as §1, §2, §3

Another data set has as its target T5, RARβ (Homo sapiens, UniProt P10826).
T5 sequence (P10826 1-455): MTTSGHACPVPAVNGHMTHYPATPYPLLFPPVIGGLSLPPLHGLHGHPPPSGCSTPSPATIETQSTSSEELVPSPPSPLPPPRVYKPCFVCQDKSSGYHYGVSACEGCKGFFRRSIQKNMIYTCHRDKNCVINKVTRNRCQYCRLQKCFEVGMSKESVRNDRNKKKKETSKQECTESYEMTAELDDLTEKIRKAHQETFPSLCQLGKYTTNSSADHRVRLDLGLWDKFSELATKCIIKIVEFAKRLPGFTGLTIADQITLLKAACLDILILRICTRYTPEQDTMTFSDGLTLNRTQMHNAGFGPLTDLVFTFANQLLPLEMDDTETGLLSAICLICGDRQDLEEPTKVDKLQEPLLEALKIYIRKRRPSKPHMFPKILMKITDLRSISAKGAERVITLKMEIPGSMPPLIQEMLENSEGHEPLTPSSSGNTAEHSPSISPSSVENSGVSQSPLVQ
The data set can be described thus: ligand binding assay, RARβ. The conditions noted are these: read-out: RAR Bind. Ki β.
Description: as §1

Another data set deals with T6, RARα (Homo sapiens, UniProt P10276).
T6 sequence (P10276 1-462): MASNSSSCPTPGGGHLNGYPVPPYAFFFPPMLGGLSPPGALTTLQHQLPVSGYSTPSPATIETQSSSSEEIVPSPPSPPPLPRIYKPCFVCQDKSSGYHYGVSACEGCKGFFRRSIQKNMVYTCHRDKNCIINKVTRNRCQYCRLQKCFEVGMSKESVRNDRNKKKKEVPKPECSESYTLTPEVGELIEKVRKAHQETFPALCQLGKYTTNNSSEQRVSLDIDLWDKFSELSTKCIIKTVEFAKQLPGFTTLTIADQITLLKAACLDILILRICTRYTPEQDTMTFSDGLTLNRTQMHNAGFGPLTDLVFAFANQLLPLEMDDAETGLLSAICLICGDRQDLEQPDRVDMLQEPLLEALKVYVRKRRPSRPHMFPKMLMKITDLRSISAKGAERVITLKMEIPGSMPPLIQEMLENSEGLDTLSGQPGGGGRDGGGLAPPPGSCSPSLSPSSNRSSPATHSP
Nature of the data set: ligand binding assay, RARα. The following applies: read-out: RAR Bind. Ki α.
Description: as §1

Data set [6] has as its target T4, RXRγ. The data set can be described thus: ligand binding assay, RXRγ. The conditions noted are these: read-out: RXR Bind Ki γ.
Description: as §1

Data set [7] relates to female diabetic db/db mice. The data set can be described thus: serum glucose, triglyceride and thyroxine levels in db/db mice. The following applies: for Glucosc Day 0 / Triglycerides Day 0: Day 0 (pre-treatment).
Description: An assay described below tests the effect of compounds of the invention on serum glucose, tryglyceride and thyroxine levels in female 9-10 weeks old db/db mice.
Female diabetic db/db (9-10 weeks old) mice were maintained on standard laboratory food and treated by oral gavage with vehicle (corn oil), standard compound (2E,4E,1′S,2′S)-3-methyl-5-[2′-methyl-2′-(5,5,8,8-tetramethyl-5,6,7,8-tetrahydro-naphthalen-2-yl)-cyclopropyl]-penta-2,4-dienoic acid (5 mg/kg) or the test compound (5-100 mg/kg, as described in Table 2) daily for seven days at 8:00 AM. Blood samples (70 μl) were taken by orbital bleeding at 11:00 AM on day 0 (pre-treatment), day 3, and day 6. On day 7, a blood sample (700 μl) was taken at 11:00 AM and the animals were sacrificed. Glucose, triglyceride and thyroxine (T4) levels were determined on a Boehringer Manheim Hatachi Clinical Chemistry Analyzer using standard protocols provided by the manufacturer and reagents that were supplied in commercially available kits (glucose and T4: Boehringer Manheim; triglycerides: Roche Diagnostics). A NUMBER OF animals were treated in each group.

Take `CCN1CCC(C)(C)c2cc(C(C)C)cc(\C(C)=C(F)/C=C/C(C)=C/C(=O)O)c21` [Compound 27, (2E,4E,6E)-7-(1-Ethyl-6-isopropyl-4,4-dimethyl-1,2,3,4-tetrahydro-quinolin-8-yl)-6-fluoro-3-methyl-octa-2,4,6-trienoic acid]: the results for the EC50 on RXRβ [1], on RXRα [2] and at RXRγ [5] were 0.5 nM, 0.1 nM and 0.1 nM, respectively. Moreover, the “RXR Trans. efficacy β (in parentheses)” value at RXRβ [1] is 77%. Besides, at RXRα [2], the “RXR Trans. efficacy α (in parentheses)” value was 74%. The Ki (commonly a measure of affinity in units of concentration, obtained from inhibition or displacement) at RARγ is 2500 nM; at RXRα [3], 1 nM; at RXRβ [4], 11 nM; at RARβ, 840 nM; on RARα it was 680 nM. Further, on RXRγ [5], the “RXR Trans. efficacy γ (in parentheses)” value is 75%.

In the case of `CC/C(=C(F)/C=C/C(C)=C/C(=O)O)c1cc(C(C)C)cc2c1N(CC)CCC2(C)C` [Compound 28, (2E,4E,6E)-7-(1-Ethyl-6-isopropyl-4,4-dimethyl-1,2,3,4-tetrahydro-quinolin-8-yl)-6-fluoro-3-methyl-nona-2,4,6-trienoic acid], the EC50 (commonly the midpoint of the concentration-response curve) on RXRβ [1] stood at 0.4 nM; on RXRα [2], 0.3 nM; at RXRγ [5] it was 0.3 nM. For the same compound, the “RXR Trans. efficacy β (in parentheses)” value on RXRβ [1] is 66%. In addition, the “RXR Trans. efficacy α (in parentheses)” value on RXRα [2] is listed as 86%. Besides, the Ki is 2000 nM at RARγ; 2 nM at RXRα [3]; 21 nM at RXRγ [6]; 21 nM at RXRβ [4]; 430 nM on RARβ; 705 nM at RARα. The “RXR Trans. efficacy γ (in parentheses)” value at RXRγ [5] came out at 75%.

Turning to `CCCN1CCC(C)(C)c2cc(C(C)C)cc(\C(C)=C(F)/C=C/C(C)=C/C(=O)O)c21` [Compound 29, (2E,4E,6E)-6-Fluoro-7-(6-isopropyl-4,4-dimethyl-1-propyl-1,2,3,4-tetrahydro-quinolin-8-yl)-3-methyl-octa-2,4,6-trienoic acid], on RXRβ [1], the EC50 stood at 6 nM and the “RXR Trans. efficacy β (in parentheses)” value was determined as 27%. Further, in data set [7] (50 mg/kg oral gavage daily), the “Glucosc Day 0” value worked out at 523 ± 84 mg/dL; the “Triglycerides Day 0” value was found to be 316 ± 339 mg/dL; the “Glucosc Day 3, 3h” value turned out to be 476 ± 96 mg/dL; the “Triglycerides Day 3, 3h” value turned out to be 326 ± 111 mg/dL. Besides, the “Glucosc Day 6, 3h” value in data set [7] (50 mg/kg oral gavage daily) is 441 ± 184 mg/dL. On RXRα [2], the EC50 was found to be 2 nM and the “RXR Trans. efficacy α (in parentheses)” value is 32%. In addition, the Ki at RARγ amounted to 1400 nM. The Ki at RXRα [3] stood at 1 nM. At RXRβ [4], the Ki came out at 15 nM. Further, on RXRγ [5], the half-maximal effective concentration (EC50) came to 2 nM and the “RXR Trans. efficacy γ (in parentheses)” value was 10%. Further, the Ki on RARβ was found to be 450 nM. Further, on RARα, the Ki is 480 nM.

With `CC(/C=C/[C@@H]1C[C@]1(C)c1ccc2c(c1)C(C)(C)CCC2(C)C)=C\C(=O)O` [Standard compound, (2E,4E,1′S,2′S)-3-methyl-5-[2′-methyl-2′-(5,5,8,8-tetramethyl-5,6,7,8-tetrahydro-naphthalen-2-yl)-cyclopropyl]-penta-2,4-dienoic acid], in [7] (4 mg/kg oral gavage daily), the “Glucosc Day 0” value was found to be 524 ± 45 mg/dL; the “Triglycerides Day 0” value was found to be 273 ± 66 mg/dL; the “Glucosc Day 3, 3h” value amounted to 512 ± 156 mg/dL; the “Triglycerides Day 3, 3h” value stood at 755 ± 464 mg/dL. The “Glucosc Day 6, 3h” value in data set [7] (4 mg/kg oral gavage daily) amounted to 459 ± 148 mg/dL. For the same compound, the “T4 Day 7” value in data set [7] (4 mg/kg oral gavage daily, Day 7) was found to be 1.4 ± 0.5 µg/dL.
